Reference: patent US20150299250A1, “MACROCYCLIC COMPOUNDS AND USES THEREOF” (ADELAIDE RESEARCH & INNOVATION PTY LTD, priority 2012, published 2015)

Legend:
[1] = tested on: normal cell lines (fibroblasts, osteoblasts); assay: Cell viability assay, normal cell lines (average); assay type: cell-based; settings: Homo sapiens; average of fibroblasts and osteoblasts
Experimental: (§1) Cell viability assays were performed as previously described. Briefly, cells were seeded in 96 well microtiterplates at a density of 3×10^4 cells per well in the presence of the indicated chemical. Cells were harvested 48 hours post-treatment, centrifuged at 1,300×g, washed in phosphate-buffered saline (PBS) and stained with 7AAD solution (2 μg/mL) (7-amino-actinomycin-D, Invitrogen, Carlsbad, Calif.) for 10 mins at room temperature. Viable cells were determined with the use of a FACS Calibur flow cytometer (Becton Dickinson Immunocytometry Systems), and analyzed with the use of FLOWJO (Tree Star, Inc) and GraphPad Prism (GraphPad Software Inc).
(§2) WE-68 and VH-64 Ewing's sarcoma cells were kindly supplied by F. van Valen (Department of Orthopaedic Surgery, Westfalische-Wilhelms-University, Germany).TC-252 and STA-ET-1 Ewing's sarcoma cells were kindly provided by G. Hamilton (Department of Surgery, University of Vienna, Austria) or P. Ambros (Children's Cancer Research Institute, St Anna Children's Hospital, Vienna, Austria). Primary human embryonic fibroblasts or primary human osteoblasts were collected from the Women's and Children's Hospital (North Adelaide, South Australia, Australia) or Royal Adelaide Hospital with patient consent. Mouse Embryonic Fibroblasts (MEFs) and its p53-null derivative were kindly supplied by Guillermina Lozano (Department of Genetics, Anderson Cancer Centre, University of Texas, Houston, Tex., USA). WE-68 cell lines were grown in RPMI-1640 media, whilst human embryonic fibroblasts and MEFs were grown in Dulbecco's Modified Eagle's Medium (DMEM). Media was supplemented with 10% FCS, 1% PSG and 10 mM HEPES. All cells were maintained at 37° C. in a humidified atmosphere of 5% CO2.

[2] = tested on: primary human embryonic fibroblasts; assay: Cell viability assay (7AAD, 48 hours), normal fibroblasts; assay type: cell-based; settings: Fibroblast, 48 hours exposure, read-out: Normal cell lines IC50 (μM) Fibroblasts
Experimental: as §1, §2

[3] = tested on: panel of sarcoma cell lines (WE-68, VH-64, STA-ET-1, TC-252); assay: Cell viability assay, panel of four sarcoma cell lines (average); assay type: cell-based
Experimental: as §1, §2

[4] = biological target: T1, 20S proteasome CP-L activity (Oryctolagus cuniculus, UniProt A0A5F9DQW2); assay: In vitro proteasome activity assay, CP-L (Z-nLPnLD-AMC); assay type: biochemical, rabbit; settings: purified 20S proteasome; highest concentration tested 25,000 nM
T1 construct: Purified rabbit 20S proteasome
Experimental: We initially determined the ability of the novel tripeptide MG132 analogues 1-6 and the macrocycles 3a and 4a to inhibit the three separate protease activities of the 20S proteasome (CT-L, -T-L and CP-L). The assays were performed in vitro using purified 20S proteasome/inhibitor mixtures, with the activity of each subunit of the proteasome assessed upon incubation with its respective target peptide. […] In addition, there is no apparent clear-cut preference for the length of tether (compare compounds 1 to 4), while the introduction of an aryl group at P3 (as in 6) is well tolerated.
Purified rabbit 20S proteasome and fluorogenic CT-L substrate (Suc-LLVY-AMC) were purchased from Boston Biochem (Cambridge, Mass., USA). The T-L and CP-L fluorogenic substrates (Ac-RLR-AMC and Z-nLPnLD-AMC) were purchased from Enzo Life Sciences (Farmingdale, N.Y., USA). The 20S proteasome was diluted to 0.2 μg/μL in 20S proteasome buffer (50 mM HEPES pH 7.6, 150 mM NaCl and 1 mM DDT) and stored at −80° C. Purified 20S proteasome (8 ng) was pre-incubated with the indicated concentrations of inhibitors for 15 minutes and subsequently added to the AMC-labeled substrate peptide (50 μM) in assay buffer (25 mM HEPES, pH 7.5, 0.5 mM EDTA, 0.05% NP-40, and 0.001% SDS (w/v)) at 37° C. for 2 hours. Fluorescent substrate cleavage by the 20S proteasome was linear during this incubation timeframe (Supplementary Figure S4. Hydrolysed 7-amino-4-methylcoumarin (AMC) was subsequently detected with the FLUOstar OPTIMA microplatefluorometer at excitation/emission of 390/460 nm. The activity was estimated in relative fluorescence units and half of the maximal inhibitory activity of the proteasome is represented by IC50 values. A minimum of three biological replicates were performed for each data point.

[5] = tested on: STA-ET-1 Ewing's sarcoma cells; assay: Cell viability assay (7AAD, 48 hours), STA-ET-1; assay type: cell-based; settings: 48 hours exposure; read-out: Cancer cell lines IC50 (μM) STA-ET-1
Experimental: as §1, §2

[6] = tested on: primary human osteoblasts; assay: Cell viability assay (7AAD, 48 hours), normal osteoblasts; assay type: cell-based; settings: Osteoblast, 48 hours exposure, read-out: Normal cell lines IC50 (μM) Osteoblasts
Experimental: as §1, §2

[7] = tested on: WE-68 Ewing's sarcoma cells; assay: Cell viability assay (7AAD, 48 hours), WE-68; assay type: cell-based; settings: 48 hours exposure; read-out: Cancer cell lines IC50 (μM) WE-68
Experimental: as §1, §2

[8] = biological target: T2, 20S proteasome chymotrypsin-like (CT-L) activity (Oryctolagus cuniculus, UniProt G1T4Q9); assay: In vitro proteasome activity assay, CT-L (Suc-LLVY-AMC); assay type: biochemical, rabbit; settings: purified 20S proteasome
T2 sequence (G1T4Q9 1-263): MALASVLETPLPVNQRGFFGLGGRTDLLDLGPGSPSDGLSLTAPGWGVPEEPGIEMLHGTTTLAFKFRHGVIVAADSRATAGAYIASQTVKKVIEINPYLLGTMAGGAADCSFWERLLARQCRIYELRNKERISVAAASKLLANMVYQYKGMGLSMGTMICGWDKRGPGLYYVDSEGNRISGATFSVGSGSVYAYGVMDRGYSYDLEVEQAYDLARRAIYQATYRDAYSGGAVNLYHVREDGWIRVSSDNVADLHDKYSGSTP
Experimental: (§3) The assays were performed in vitro using purified 20S proteasome/inhibitor mixtures, with the activity of each subunit of the proteasome assessed upon incubation with its respective target peptide.
(§4) Purified rabbit 20S proteasome and fluorogenic CT-L substrate (Suc-LLVY-AMC) were purchased from Boston Biochem (Cambridge, Mass., USA). The T-L and CP-L fluorogenic substrates (Ac-RLR-AMC and Z-nLPnLD-AMC) were purchased from Enzo Life Sciences (Farmingdale, N.Y., USA). The 20S proteasome was diluted to 0.2 μg/μL in 20S proteasome buffer (50 mM HEPES pH 7.6, 150 mM NaCl and 1 mM DDT) and stored at −80° C. Purified 20S proteasome (8 ng) was pre-incubated with the indicated concentrations of inhibitors for 15 minutes and subsequently added to the AMC-labeled substrate peptide (50 μM) in assay buffer (25 mM HEPES, pH 7.5, 0.5 mM EDTA, 0.05% NP-40, and 0.001% SDS (w/v)) at 37° C. for 2 hours.

[9] = tested on: VH-64 Ewing's sarcoma cells; assay: Cell viability assay (7AAD, 48 hours), VH-64; assay type: cell-based; settings: 48 hours exposure; read-out: Cancer cell lines IC50 (μM) VH-64
Experimental: as §1, §2

[10] = tested on: TC-252 Ewing's sarcoma cells; assay: Cell viability assay (7AAD, 48 hours), TC-252; assay type: cell-based; settings: 48 hours exposure; read-out: Cancer cell lines IC50 (μM) TC-252
Experimental: as §1, §2

[11] = biological target: T3, 20S proteasome T-L activity (Oryctolagus cuniculus, UniProt G1SWK8); assay: In vitro proteasome activity assay, T-L (Ac-RLR-AMC); assay type: biochemical, rabbit; settings: purified 20S proteasome; highest concentration tested 25,000 nM
T3 construct: purchased Boston Biochem
T3 sequence (G1SWK8 1-271): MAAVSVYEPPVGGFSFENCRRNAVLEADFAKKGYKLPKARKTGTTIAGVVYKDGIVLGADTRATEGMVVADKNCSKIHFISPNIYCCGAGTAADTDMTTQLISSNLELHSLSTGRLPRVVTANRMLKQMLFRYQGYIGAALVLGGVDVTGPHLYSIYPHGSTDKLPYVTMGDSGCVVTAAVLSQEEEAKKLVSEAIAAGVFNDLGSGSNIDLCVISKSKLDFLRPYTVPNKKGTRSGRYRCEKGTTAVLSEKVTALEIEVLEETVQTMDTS
Experimental: as §3, §4

[12] = biological target: T4, ovine calpain 1 (o-CAPN1) (Ovis aries, UniProt B2ZA85); assay: Fluorometric calpain assay (BODIPY-Fl casein), ovine calpain 1; assay type: biochemical
T4 sequence (B2ZA85 1-716): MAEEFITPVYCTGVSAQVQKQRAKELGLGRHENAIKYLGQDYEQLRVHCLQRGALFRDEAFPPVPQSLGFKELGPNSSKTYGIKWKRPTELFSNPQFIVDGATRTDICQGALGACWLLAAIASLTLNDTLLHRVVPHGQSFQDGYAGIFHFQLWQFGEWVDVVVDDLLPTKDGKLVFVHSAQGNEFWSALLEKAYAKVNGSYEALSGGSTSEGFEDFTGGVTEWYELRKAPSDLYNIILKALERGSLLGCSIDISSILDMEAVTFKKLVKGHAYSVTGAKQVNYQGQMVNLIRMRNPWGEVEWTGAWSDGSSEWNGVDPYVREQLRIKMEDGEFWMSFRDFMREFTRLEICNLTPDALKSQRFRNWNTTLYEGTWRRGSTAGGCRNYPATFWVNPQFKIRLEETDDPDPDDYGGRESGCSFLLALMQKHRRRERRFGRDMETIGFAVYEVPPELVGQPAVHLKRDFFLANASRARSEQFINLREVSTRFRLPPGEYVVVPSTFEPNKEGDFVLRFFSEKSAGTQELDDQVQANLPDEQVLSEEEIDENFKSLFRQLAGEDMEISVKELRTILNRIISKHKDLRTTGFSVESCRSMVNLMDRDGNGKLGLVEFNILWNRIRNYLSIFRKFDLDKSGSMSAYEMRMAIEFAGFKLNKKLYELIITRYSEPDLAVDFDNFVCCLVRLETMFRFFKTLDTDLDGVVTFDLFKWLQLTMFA
T4 sequence (A0ACI6PYI8 1-265 partner): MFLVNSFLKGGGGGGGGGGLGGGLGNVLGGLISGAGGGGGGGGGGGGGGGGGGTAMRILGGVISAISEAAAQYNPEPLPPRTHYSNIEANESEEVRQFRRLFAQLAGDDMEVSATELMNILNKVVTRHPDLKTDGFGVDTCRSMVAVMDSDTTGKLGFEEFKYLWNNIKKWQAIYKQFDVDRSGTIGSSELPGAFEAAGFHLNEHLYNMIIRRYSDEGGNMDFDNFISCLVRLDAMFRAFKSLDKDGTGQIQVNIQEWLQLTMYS
Experimental: Fluorometric assays (excitation: 485 nm, emission: 520 nm) with ovine calpains 1 and 2 were done with a (BMG Labtech) Fluostar Optima plate reader at 37.0±0.2° C. in 96-well black (Greiner Bio-one) microassay plates. Calpains 1 and 2, partially purified from sheep lung by hydrophobic interaction and ion-exchange chromatography, were diluted in 20 mM MOPS, pH 7.5, containing 2 mM EGTA, 2 mM EDTA and 0.035% v/v 2-mercaptoethanol to give a linear response over the course of the assay. The substrate BODIPY-F1 casein was prepared as reported. {1} A 0.0005% solution of the substrate in 10 mM MOPS, pH 7.5, 10 mM CaCl2, 0.1 mM NaN3, 0.1% v/v 2-mercaptoethanol was prepared freshly before each experiment. […]
Inhibition studies were performed in the presence of seven different inhibitor concentrations and 1% v/v DMSO in a volume of 200 μL: 50 μl of inhibitor solution was added to a microassay well followed by 50 μl of calpain-containing solution. The reaction was initiated by adding 100 μl of BODIPY-F1 casein solution to each well and progress curves were monitored every 30 s over 570 s. Uninhibited enzyme activity was determined by adding 4% v/v DMSO in water instead of inhibitor solution. […]
The average value of rates obtained in two separate experiments, each in triplicate, was plotted versus the inhibitor concentration and IC50 values were calculated with the following equation: […]

T1 sequence (A0A5F9DQW2 1-212): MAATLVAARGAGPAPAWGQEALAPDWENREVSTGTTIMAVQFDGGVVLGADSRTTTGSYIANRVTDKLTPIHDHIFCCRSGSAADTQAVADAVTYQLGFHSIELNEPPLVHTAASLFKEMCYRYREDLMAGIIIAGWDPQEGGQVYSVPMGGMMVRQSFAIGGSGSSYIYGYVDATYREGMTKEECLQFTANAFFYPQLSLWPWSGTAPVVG

| melting point | IC50 ([3]; average of four sarcoma cell lines, read-out: Average IC50 for cancer cell lines) | IC50 [4] | IC50 [5] | IC50 [7] | IC50 [8] | IC50 [9] | IC50 [10] | IC50 [11] | Structure (SMILES) | IC50 [1] | IC50 [2] | Therapeutic window ([3]; fold change in potency (IC50) against cancer cell line versus normal cell line) | IC50 [6] | isoform selectivity o-CAPN2 vs. o-CAPN1 [12] |
| --- | --- | --- | --- | --- | --- | --- | --- | --- | --- | --- | --- | --- | --- | --- |
| 71 to 73 °C | 5.4 µM | > 25000 nM | 6.5 µM | 4.5 µM | 34 nM | 5.8 µM | 5 µM | > 25000 nM | C#CCOc1ccc(C[C@@H](C=O)NC(=O)[C@H](CC(C)C)NC(=O)[C@H](CN=[N+]=[N-])NC(=O)OCc2ccccc2)cc1 [Compound 1] | 18 µM | 12.2 µM | ×3.3 | 23.7 µM | – |
| – | – | – | – | – | – | – | – | – | CC(C)C[C@@H](C=O)NC(=O)[C@@H]1CCCCCCCCCCCC(=O)c2ccc([nH]2)C(=O)N1 [Compound 1c, (S)—N—((S)-4-methyl-1-oxopentan-2-yl)-2,16-dioxo-3,20-diazabicyclo[15.2.1]icosa-1(19),17-diene-4-carboxamide] | – | – | – | – | no isoform selectivity |
| – | – | – | – | – | – | – | – | – | CC(C)CC(C=O)NC(=O)C1CCCCOc2ccc(cc2)CCC(=O)c2ccc([nH]2)C(=O)N1 (stereo not drawn) [Compound 2c] | – | – | – | – | no isoform selectivity |
